Measurements: patent publication US4742053A, “3-Isoquinoliniomethyl cephalosporin derivatives” (Banyu Pharmaceutical Co., Ltd., priority 1984, dated 1988)
Values after ≈ are worked out from the molar mass of the structure shown. Read-outs that look alike come from different tables or passages of the source.

How the values were obtained:
Assay in all cases: MIC by agar plate dilution method
Assay type in all cases: cell-based
E. coli W3630/Rms212 = details: Escherichia coli, W3630/RMS212, read-out: Minimum Inhibitory Concentration, E. coli W3630/Rms212; 10^6 CFU/ml
Method: (§1) The minimum inhibitory concentrations (MIC: μg/ml) of the compounds of the present invention against various microorganisms were measured by an agar plate dilution method (inoculum size: 10^6 CFU/ml) by using Sensitivity Disk Agar (Nissui) in comparison with Cefotaxime and Ceftazidime as comparative compounds.
(§2) Minimum Inhibitory Concentration (μg/ml; 10^6 CFU/ml)

E. coli CSH = details: Escherichia coli, 10^6 CFU/ml, read-out: Minimum Inhibitory Concentration
Method: as §1, §2

P. aeruginosa AKR17 = details: Pseudomonas aeruginosa, AKR17, P. aeruginosa AKR17; 10^6 CFU/ml; read-out: Minimum Inhibitory Concentration
Method: as §1, §2

E. coli NIHJJC-2 = details: Escherichia coli, NIHJJC2, E. coli NIHJJC-2; 10^6 CFU/ml; read-out: Minimum Inhibitory Concentration
Method: as §1, §2

E. coli ML1410/Rte16 = details: Escherichia coli, ML1410/RTE16, read-out: Minimum Inhibitory Concentration, E. coli ML1410/Rte16; 10^6 CFU/ml
Method: as §1, §2

C. freundii No. 7 = details: Citrobacter freundii; C. freundii No. 7; 10^6 CFU/ml; read-out: Minimum Inhibitory Concentration
Method: as §1, §2

S. marcescens No. 16-2 = details: Serratia marcescens
Method: as §1, §2

P. maltophilia IID 1275 = details: Stenotrophomonas maltophilia, IID1275; P. maltophilia IID 1275; 10^6 CFU/ml; read-out: Minimum Inhibitory Concentration
Method: as §1, §2

E. coli C/Rms149 = details: Escherichia coli, read-out: Minimum Inhibitory Concentration, E. coli C/Rms149; 10^6 CFU/ml
Method: as §1, §2

P. vulgaris OB1043 = details: Proteus vulgaris
Method: as §1, §2

P. vulgaris No. 33 = details: Proteus vulgaris
Method: as §1, §2

P. mirabilis JY10 = details: Proteus mirabilis
Method: as §1, §2

K. pneumoniae No. 42 = details: Klebsiella pneumoniae
Method: as §1, §2

P. cepacia 23 = details: Burkholderia cepacia; P. cepacia 23; 10^6 CFU/ml; read-out: Minimum Inhibitory Concentration
Method: as §1, §2

E. cloaceae Nek 39 = details: E. cloaceae Nek 39; 10^6 CFU/ml; read-out: Minimum Inhibitory Concentration
Method: as §1, §2

S. aureus JS-1 = details: Staphylococcus aureus, JS1; S. aureus JS-1; 10^6 CFU/ml; read-out: Minimum Inhibitory Concentration
Method: as §1, §2

E. coli CSH2 = details: Escherichia coli, 10^6 CFU/ml, read-out: Minimum Inhibitory Concentration
Method: as §1, §2

A. calcoaceticus No. 14 = details: Acinetobacter calcoaceticus, NO.14, A. calcoaceticus No. 14; 10^6 CFU/ml; read-out: Minimum Inhibitory Concentration
Method: as §1, §2

P. aeruginosa AK109 = details: Pseudomonas aeruginosa, AK109, P. aeruginosa AK109; 10^6 CFU/ml; read-out: Minimum Inhibitory Concentration
Method: as §1, §2

S. aureus NIHJJC-1 = details: Staphylococcus aureus, NIHJJC1, S. aureus NIHJJC-1; 10^6 CFU/ml; read-out: Minimum Inhibitory Concentration
Method: as §1, §2

E. coli W3630/Rms213 = details: Escherichia coli, W3630/RMS213, read-out: Minimum Inhibitory Concentration, E. coli W3630/Rms213; 10^6 CFU/ml
Method: as §1, §2

[1] = NO.162, S. marcescens No. 16-2, 10^6 CFU/ml, read-out: Minimum Inhibitory Concentration
[2] = OB1043, P. vulgaris OB1043, 10^6 CFU/ml, read-out: Minimum Inhibitory Concentration
[3] = P. vulgaris No. 33, 10^6 CFU/ml, read-out: Minimum Inhibitory Concentration
[4] = P. mirabilis JY10, 10^6 CFU/ml, read-out: Minimum Inhibitory Concentration
[5] = K. pneumoniae No. 42, 10^6 CFU/ml, read-out: Minimum Inhibitory Concentration
[6] = JY10, read-out: Minimum Inhibitory Concentration

Structure (SMILES) | MIC (E. coli W3630/Rms212) | MIC (E. coli CSH) | MIC (P. aeruginosa AKR17) | MIC (E. coli NIHJJC-2) | MIC (E. coli ML1410/Rte16) | MIC (C. freundii No. 7) | MIC (S. marcescens No. 16-2; [1]) | MIC (P. maltophilia IID 1275) | MIC (E. coli C/Rms149) | MIC (P. vulgaris OB1043; [2]) | MIC (P. vulgaris No. 33; [3]) | MIC (K. pneumoniae No. 42; [5]) | MIC (P. cepacia 23) | MIC (E. cloaceae Nek 39) | MIC (S. aureus JS-1) | MIC (E. coli CSH2) | MIC (A. calcoaceticus No. 14) | MIC (P. aeruginosa AK109) | MIC (S. aureus NIHJJC-1) | MIC (E. coli W3630/Rms213) | also measured
CO/N=C(\C(=O)NC1C(=O)N2C(C(=O)[O-])=C(C[N+]3(C)CCc4cc(OC(C)=O)ccc4C3)CSC12)c1csc(N)n1 (stereo not drawn) [Ex. 9, 7-[(Z)-2-(2-aminothiazol-4-yl)-2-methoxyiminoacetamido]-3-(6-acetoxy-2-methyl-1,2,3,4-tetrahydro-2-isoquinolinium)methyl-3-cephem-4-carboxylate] | 0.2 µg/mL (≈ 0.333 µM) | 1.56 µg/mL (≈ 2.6 µM) | 25 µg/mL (≈ 41.6 µM) | 0.2 µg/mL (≈ 0.333 µM) | 0.2 µg/mL (≈ 0.333 µM) | 6.25 µg/mL (≈ 10.4 µM) | 12.5 µg/mL (≈ 20.8 µM) | > 25 µg/mL | 0.2 µg/mL (≈ 0.333 µM) | 0.78 µg/mL (≈ 1.3 µM) | 0.39 µg/mL (≈ 0.649 µM) | 0.78 µg/mL (≈ 1.3 µM) | 12.5 µg/mL (≈ 20.8 µM) | 1.56 µg/mL (≈ 2.6 µM) | 12.5 µg/mL (≈ 20.8 µM) | 0.1 µg/mL (≈ 0.166 µM) | > 25 µg/mL | 3.12 µg/mL (≈ 5.19 µM) | 0.39 µg/mL (≈ 0.649 µM) | 3.12 µg/mL (≈ 5.19 µM) | MIC (P. mirabilis JY10; [4]): 1.56 µg/mL (≈ 2.6 µM)
CO/N=C(\C(=O)NC1C(=O)N2C(C(=O)[O-])=C(C[N+]3(C)CCc4cc(O)ccc4C3)CSC12)c1csc(N)n1 (stereo not drawn) [Ex. 10, 7-[(Z)-2-(2-aminothiazol-4-yl)-2-methoxyiminoacetamido]-3-(6-hydroxy-2-methyl-1,2,3,4-tetrahydro-2-isoquinolinium)methyl-3-cephem-4-carboxylate] | 0.2 µg/mL (≈ 0.358 µM) | 0.78 µg/mL (≈ 1.4 µM) | > 25 µg/mL | 0.1 µg/mL (≈ 0.179 µM) | 0.1 µg/mL (≈ 0.179 µM) | 1.56 µg/mL (≈ 2.79 µM) | 6.25 µg/mL (≈ 11.2 µM) | > 25 µg/mL | 0.1 µg/mL (≈ 0.179 µM) | – | 0.1 µg/mL (≈ 0.179 µM) | 0.2 µg/mL (≈ 0.358 µM) | 6.25 µg/mL (≈ 11.2 µM) | 0.78 µg/mL (≈ 1.4 µM) | 6.25 µg/mL (≈ 11.2 µM) | ≤ 0.05 µg/mL | 25 µg/mL (≈ 44.8 µM) | 1.56 µg/mL (≈ 2.79 µM) | 0.39 µg/mL (≈ 0.698 µM) | 1.56 µg/mL (≈ 2.79 µM) | MIC (P. vulgaris OB1043; OB1043, read-out: Minimum Inhibitory Concentration): 0.39 µg/mL (≈ 0.698 µM); MIC (P. mirabilis JY10; [4]): 0.78 µg/mL (≈ 1.4 µM)
CON=C(C(=O)NC1C(=O)N2C(C(=O)[O-])=C(C[N+]3(C)CCc4c(ccc(O)c4O)C3)CSC12)c1csc(N)n1 (stereo not drawn) [Ex. 11, 7-[(Z)-2-(2-aminothiazol-4-yl)-2-methoxyiminoacetamido]-3-(5,6-dihydroxy-2-methyl-1,2,3,4-tetrahydro-2-isoquinolinium)methyl-3-cephem-4-carboxylate] | 0.025 µg/mL (≈ 0.0435 µM) | 0.78 µg/mL (≈ 1.36 µM) | 6.25 µg/mL (≈ 10.9 µM) | 0.05 µg/mL (≈ 0.087 µM) | 0.1 µg/mL (≈ 0.174 µM) | 12.5 µg/mL (≈ 21.8 µM) | 12.5 µg/mL (≈ 21.8 µM) | > 50 µg/mL | 0.1 µg/mL (≈ 0.174 µM) | 1.56 µg/mL (≈ 2.71 µM) | 0.2 µg/mL (≈ 0.348 µM) | – | 0.2 µg/mL (≈ 0.348 µM) | 0.025 µg/mL (≈ 0.0435 µM) | 25 µg/mL (≈ 43.5 µM) | 0.39 µg/mL (≈ 0.679 µM) | 0.39 µg/mL (≈ 0.679 µM) | 0.2 µg/mL (≈ 0.348 µM) | 6.25 µg/mL (≈ 10.9 µM) | 0.78 µg/mL (≈ 1.36 µM) | MIC (P. mirabilis JY10; [6]): 0.39 µg/mL (≈ 0.679 µM); MIC (K. pneumoniae No. 42; NO.42, read-out: Minimum Inhibitory Concentration): 0.39 µg/mL (≈ 0.679 µM)
CON=C(C(=O)NC1C(=O)N2C(C(=O)[O-])=C(C[N+]3(C)CCc4cc(O)c(O)c(O)c4C3)CSC12)c1csc(N)n1 (stereo not drawn) [Ex. 12, 7-[(Z)-2-(2-aminothiazol-4-yl)-2-methoxyiminoacetamido]-3-(2-methyl-1,2,3,4-tetrahydro-6,7,8-trihydroxy-2-isoquinolinium)methyl-3-cephem-4-carboxylate] | 0.78 µg/mL (≈ 1.32 µM) | 3.12 µg/mL (≈ 5.28 µM) | 50 µg/mL (≈ 84.7 µM) | 0.78 µg/mL (≈ 1.32 µM) | 1.56 µg/mL (≈ 2.64 µM) | 12.5 µg/mL (≈ 21.2 µM) | 100 µg/mL (≈ 169 µM) | 100 µg/mL (≈ 169 µM) | 0.78 µg/mL (≈ 1.32 µM) | 3.12 µg/mL (≈ 5.28 µM) | 1.56 µg/mL (≈ 2.64 µM) | 1.56 µg/mL (≈ 2.64 µM) | 1.56 µg/mL (≈ 2.64 µM) | 1.56 µg/mL (≈ 2.64 µM) | 50 µg/mL (≈ 84.7 µM) | 1.56 µg/mL (≈ 2.64 µM) | 25 µg/mL (≈ 42.3 µM) | 25 µg/mL (≈ 42.3 µM) | 25 µg/mL (≈ 42.3 µM) | 3.12 µg/mL (≈ 5.28 µM) | MIC (P. mirabilis JY10; [4]): 0.78 µg/mL (≈ 1.32 µM)
CC(C)ON=C(C(=O)NC1C(=O)N2C(C(=O)[O-])=C(C[N+]3(C)CCc4cc(O)c(O)cc4C3)CSC12)c1csc(N)n1 (stereo not drawn) [Ex. 13, 7-[(Z)-2-(2-aminothiazol-4-yl)-2-isopropoxyiminoacetamido]-3-(6,7-dihydroxy-2-methyl-1,2,3,4-tetrahydro-2-isoquinolinium)methyl-3-cephem-4-carboxylate] | 0.0125 µg/mL (≈ 0.0207 µM) | 0.05 µg/mL (≈ 0.083 µM) | 0.2 µg/mL (≈ 0.332 µM) | 0.05 µg/mL (≈ 0.083 µM) | 0.025 µg/mL (≈ 0.0415 µM) | 3.12 µg/mL (≈ 5.18 µM) | – | 12.5 µg/mL (≈ 20.7 µM) | 0.025 µg/mL (≈ 0.0415 µM) | 0.2 µg/mL (≈ 0.332 µM) | 0.1 µg/mL (≈ 0.166 µM) | 0.1 µg/mL (≈ 0.166 µM) | 0.05 µg/mL (≈ 0.083 µM) | 0.006 µg/mL (≈ 0.00996 µM) | 12.5 µg/mL (≈ 20.7 µM) | 0.05 µg/mL (≈ 0.083 µM) | 0.2 µg/mL (≈ 0.332 µM) | 0.05 µg/mL (≈ 0.083 µM) | 3.12 µg/mL (≈ 5.18 µM) | 0.05 µg/mL (≈ 0.083 µM) | MIC (S. marcescens No. 16-2; NO.162, read-out: Minimum Inhibitory Concentration): 1.56 µg/mL (≈ 2.59 µM); MIC (P. mirabilis JY10; [6]): 0.39 µg/mL (≈ 0.647 µM)
C[N+]1(CC2=C(C(=O)[O-])N3C(=O)C(NC(=O)C(=NOCC(=O)O)c4csc(N)n4)C3SC2)CCc2cc(O)c(O)cc2C1 (stereo not drawn) [Ex. 14-F, 7-[(Z)-2-(2-aminothiazol-4-yl)-2-carboxymethoxyiminoacetamido]-3-(6,7-dihydroxy-2-methyl-1,2,3,4-tetrahydro-2-isoquinolinium)methyl-3-cephem-4-carboxylate] | 0.006 µg/mL (≈ 0.0097 µM) | 0.05 µg/mL (≈ 0.0808 µM) | 0.1 µg/mL (≈ 0.162 µM) | 0.025 µg/mL (≈ 0.0404 µM) | 0.025 µg/mL (≈ 0.0404 µM) | 0.78 µg/mL (≈ 1.26 µM) | 0.39 µg/mL (≈ 0.63 µM) | 3.12 µg/mL (≈ 5.04 µM) | 0.025 µg/mL (≈ 0.0404 µM) | 0.1 µg/mL (≈ 0.162 µM) | – | 0.05 µg/mL (≈ 0.0808 µM) | 0.05 µg/mL (≈ 0.0808 µM) | 0.006 µg/mL (≈ 0.0097 µM) | 50 µg/mL (≈ 80.8 µM) | 0.025 µg/mL (≈ 0.0404 µM) | 0.1 µg/mL (≈ 0.162 µM) | 0.05 µg/mL (≈ 0.0808 µM) | 12.5 µg/mL (≈ 20.2 µM) | 0.1 µg/mL (≈ 0.162 µM) | MIC (P. vulgaris No. 33; NO.33, read-out: Minimum Inhibitory Concentration): 0.05 µg/mL (≈ 0.0808 µM); MIC (P. mirabilis JY10; [4]): 0.2 µg/mL (≈ 0.323 µM)
